Experimental data published in article PMC9750858, “Rapid biosensor development using plant hormone receptors as reprogrammable scaffolds” (Nature Biotechnology, 2022).
Where “and” joins values, the source holds several entries; their conditions need not be identical. Equal entries are not always repeated.

Key:
[1] = tested on: PYR1-derived cannabinoid receptors (PYR1 mutants) binding HAB1; conditions: for selectivity of Y2H response of the sensor evolved for the ligand: PYR1^CBDA or PYR1^CP 47,497, all ligands tested at 25 µM; for cannabinoid concentration to which CB-S1 library clones respond (as low as): clones from shuffled library CB-S1
PYR1^WIN-M = biological target: T1, PYR1^WIN-M (Arabidopsis thaliana, UniProt O49686, A160I/D26G/E4G/F159A/H60P/K59Q/N90S/Y23H); assay: ELISA-like plate assay, immobilized PYR1^WIN-M, biotinylated ΔN-HAB1^T+; format: binding; conditions: replicates
T1 construct: made in house
T1 sequence (O49686 with tags, fused parts or gaps E4G/Y23H/D26G/K59Q/H60P/N90S/F159A/A160I): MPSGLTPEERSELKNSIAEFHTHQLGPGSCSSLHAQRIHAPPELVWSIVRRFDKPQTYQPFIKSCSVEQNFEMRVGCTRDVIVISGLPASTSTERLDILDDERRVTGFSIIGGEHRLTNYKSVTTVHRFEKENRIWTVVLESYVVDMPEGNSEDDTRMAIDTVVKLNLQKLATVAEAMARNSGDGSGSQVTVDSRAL

PYR1^PIRI = biological target: T2, PYR1^PIRI (Arabidopsis thaliana, UniProt O49686, A160T/E130G/F159T/K59R/N119S/S122Q/S92M/V174A); assay: Split NanoLuc luciferase complementation in yeast, NLuc^N-PYR1^PIRI/NLuc^C-HAB1; format: cell-based; conditions: Figure 4f(bottom), replicates
T2 construct: >PYR1-PIRI; expressed in transfected cells; host or cells: Saccharomyces cerevisiae BY4742

PYR1^DIAZI = PYR1^DIAZI (Arabidopsis thaliana, UniProt O49686, A160V/E8G/F108Y/F159G/L87M/M158V/V81Y); assay: Split NanoLuc luciferase complementation in yeast, NLuc^N-PYR1^DIAZI/NLuc^C-HAB1; format: cell-based; set-up: >PYR1-DIAZI; expressed in transfected cells; host or cells: Saccharomyces cerevisiae BY4742; conditions: Figure 4f(top), 3 replicates
PYR1^DIAZI, sequence (Q9CAJ0 179-511): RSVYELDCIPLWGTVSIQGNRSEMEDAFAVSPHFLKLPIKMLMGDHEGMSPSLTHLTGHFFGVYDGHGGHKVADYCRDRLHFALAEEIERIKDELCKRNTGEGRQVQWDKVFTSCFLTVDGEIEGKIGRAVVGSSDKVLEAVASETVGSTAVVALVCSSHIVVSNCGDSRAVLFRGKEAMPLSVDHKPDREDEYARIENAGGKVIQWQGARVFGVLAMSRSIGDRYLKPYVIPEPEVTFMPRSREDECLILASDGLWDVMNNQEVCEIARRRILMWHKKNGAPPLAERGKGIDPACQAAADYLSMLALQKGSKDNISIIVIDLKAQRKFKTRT
PYR1^DIAZI, sequence (O49686 other isoform, or with tags, fused parts or gaps E8G/V81Y/L87M/F108Y/M158V/F159G/A160V): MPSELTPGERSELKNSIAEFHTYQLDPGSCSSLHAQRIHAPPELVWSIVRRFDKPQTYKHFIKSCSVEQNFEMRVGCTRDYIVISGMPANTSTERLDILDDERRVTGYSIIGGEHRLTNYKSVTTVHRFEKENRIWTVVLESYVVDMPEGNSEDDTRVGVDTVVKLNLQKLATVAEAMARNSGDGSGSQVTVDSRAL

T2 sequence (O49686 other isoform, or with tags, fused parts or gaps K59R/S92M/N119S/S122Q/E130G/F159T/A160T/V174A): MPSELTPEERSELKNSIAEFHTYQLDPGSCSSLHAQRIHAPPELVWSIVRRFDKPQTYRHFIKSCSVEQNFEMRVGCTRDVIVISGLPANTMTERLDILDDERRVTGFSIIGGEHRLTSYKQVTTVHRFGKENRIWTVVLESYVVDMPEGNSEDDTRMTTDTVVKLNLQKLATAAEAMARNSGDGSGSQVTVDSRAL
T2 sequence (Q9CAJ0 179-511, further chain): as the sequence (Q9CAJ0 179-511) above

## C=C(C)[C@@H]1CCC(C)=C[C@H]1c1c(O)cc(CCCCC)c(C(=O)O)c1O [CBDA, cannabidiolic acid]
[1]
  selectivity of Y2H response of the sensor evolved for the ligand: selectively responds

## CCCCCCC(C)(C)c1ccc(C2CCCC(O)C2)c(O)c1 (centres unmarked) [CP 47,497, cannabicyclohexanol]
[1]
  selectivity of Y2H response of the sensor evolved for the ligand: selectively responds
PYR1^WIN-M; cannabinoid at 2 nM, 497
  ELISA signal generation, receptor cross-reactivity (source data): 0.117 and 0.142 and 0.12
PYR1^WIN-M; cannabinoid at 2 μM, 497
  ELISA signal generation, receptor cross-reactivity (source data): 0.105 (2×) and 0.078

## CCCn1c(C)c(C(=O)c2cccc3ccccc23)c2ccccc21 [JWH-015]
[1]
  cannabinoid concentration to which CB-S1 library clones respond (as low as): 100 nM

## CCCCn1c(C)c(C(=O)c2cccc3ccccc23)c2ccccc21 [JWH-016]
[1]
  cannabinoid concentration to which CB-S1 library clones respond (as low as): 50 nM

## CCCCCn1cc(C(=O)c2cccc3ccccc23)c2ccccc21 [JWH-018]
[1]
  cannabinoid concentration to which CB-S1 library clones respond (as low as): 500 nM

## CCCn1cc(C(=O)c2cccc3ccccc23)c2ccccc21 [JWH-072]
[1]
  cannabinoid concentration to which CB-S1 library clones respond (as low as): 50 nM
PYR1^WIN-M; cannabinoid at 2 nM
  ELISA signal generation, receptor cross-reactivity (source data): 0.289 and 0.097 and 0.074
PYR1^WIN-M; cannabinoid at 2 μM
  ELISA signal generation, receptor cross-reactivity (source data): 0.219 and 0.29 and 0.268

## COP(=S)(OC)Oc1ccc([N+](=O)[O-])cc1 [Parathion-methyl, parathion-methyl]
PYR1^PIRI; [Agonist] 1e-5 nM
  Sensor signal (Figure 4f bottom), replicate values: 11.8454 and 17.8157 and 9.952
PYR1^PIRI; [Agonist] 0.5 nM
  Sensor signal (Figure 4f bottom), replicate values: 11.1865 and 13.661 and 9.612
PYR1^PIRI; [Agonist] 1 nM
  Sensor signal (Figure 4f bottom), replicate values: 11.9354 and 18.4849 and 9.205
PYR1^PIRI; [Agonist] 10 nM
  Sensor signal (Figure 4f bottom), replicate values: 10.4509 and 13.1415 and 9.783
PYR1^PIRI; [Agonist] 100 nM
  Sensor signal (Figure 4f bottom), replicate values: 9.423 and 12.7271 and 15.286
PYR1^PIRI; [Agonist] 1000 nM
  Sensor signal (Figure 4f bottom), replicate values: 9.542 and 20.0758 and 23.4336
PYR1^PIRI; [Agonist] 10000 nM
  Sensor signal (Figure 4f bottom), replicate values: 13.1296 and 21.6675 and 76.706
PYR1^PIRI; [Agonist] 100000 nM
  Sensor signal (Figure 4f bottom), replicate values: 11.2909 and 29.034 and 72.4977
PYR1^DIAZI; [Agonist] 1e-5 nM
  Sensor signal (Figure 4f top), replicate values: 15.0369 and 11.1106 and 15.282
PYR1^DIAZI; [Agonist] 0.5 nM
  Sensor signal (Figure 4f top), replicate values: 71.449 and 15.1942 and 16.4674
PYR1^DIAZI; [Agonist] 1 nM
  Sensor signal (Figure 4f top), replicate values: 69.4998 and 48.0045 and 15.815
PYR1^DIAZI; [Agonist] 10 nM
  Sensor signal (Figure 4f top), replicate values: 30.1106 and 67.3607 and 15.8069
PYR1^DIAZI; [Agonist] 100 nM
  Sensor signal (Figure 4f top), replicate values: 15.5477 and 62.6829 and 17.0922
PYR1^DIAZI; [Agonist] 1000 nM
  Sensor signal (Figure 4f top), replicate values: 34.4735 and 76.5381 and 29.0859
PYR1^DIAZI; [Agonist] 10000 nM
  Sensor signal (Figure 4f top), replicate values: 73.5456 and 54.5583 and 65.8713
PYR1^DIAZI; [Agonist] 100000 nM
  Sensor signal (Figure 4f top), replicate values: 78.279 and 10.2013 and 20.8749
